This passage reports mass density results from the NIST ThermoML archive (doi:10.1016/j.jct.2012.05.020).

Structures are written as SMILES. Numbers after ± are expanded uncertainties.

The conditions of the series: 101.33 kPa, Liquid, Vibrating tube method.

In general, mass density refers to the mass of a sample divided by its volume. Regarding `CCOS(=O)(=O)[O-].CCn1cc[n+](C)c1` [1-ethyl-3-methylimidazolium ethyl sulfate], the mass density (293.16 K) is reported as 1240.25 ± 0.16 kg/m3; the mass density (298.15 K) is recorded as 1236.81 ± 0.16 kg/m3; the mass density (303.15 K) stood at 1233.39 ± 0.16 kg/m3; the mass density (308.15 K) was 1229.98 ± 0.15 kg/m3; the mass density (313.15 K) was found to be 1226.59 ± 0.15 kg/m3; the mass density (318.15 K) is on record as 1223.22 ± 0.15 kg/m3. Where the note is “323.18 K”, the mass density turned out to be 1219.84 ± 0.15 kg/m3.

For the molecule `CCCCCCCC[N+](C)(CCCCCCCC)CCCCCCCC.O=[N+]([O-])[O-]` [N-methyl-N,N,N-trioctylammonium nitrate], the mass density runs as follows: (293.16 K) 915.29 ± 2.9 kg/m3; (298.14 K) 912.33 ± 2.9 kg/m3; (303.14 K) 909.37 ± 2.9 kg/m3; (308.14 K) 906.41 ± 2.8 kg/m3; (313.14 K) 903.43 ± 2.8 kg/m3; (318.14 K) 900.5 ± 2.8 kg/m3. The mass density reads like this: (323.14 K) 897.58 ± 2.8 kg/m3; (328.14 K) 894.67 ± 2.8 kg/m3; (333.14 K) 891.76 ± 2.8 kg/m3; (338.14 K) 888.84 ± 2.7 kg/m3; (343.14 K) 885.93 ± 2.7 kg/m3.

Consider `CCCCCCCC[N+](C)(CCCCCCCC)CCCCCCCC.[Cl-]` [N-methyl-N,N-dioctyl-1-octanaminium chloride], for which the mass density (293.15 K) was 889.47 ± 2.7 kg/m3; the mass density (298.14 K) was 886.45 ± 2.7 kg/m3; the mass density (303.14 K) is recorded as 883.43 ± 2.7 kg/m3; the mass density (308.14 K) is recorded as 880.41 ± 2.7 kg/m3; the mass density (313.14 K) is recorded as 877.37 ± 2.7 kg/m3; the mass density (318.14 K) is given as 874.35 ± 2.6 kg/m3. In addition, the mass density was 871.36 ± 2.6 kg/m3 (323.14 K); 868.37 ± 2.6 kg/m3 (328.14 K); 865.37 ± 2.6 kg/m3 (333.14 K); 862.37 ± 2.6 kg/m3 (338.14 K); 859.36 ± 2.6 kg/m3 (343.14 K).
